Experiments:
Kuramochi cells [1] = assay: Incucyte cell proliferation assay, Kuramochi cells labeled with mApple-H2B; assay type: cell-based; conditions: class symbols A-D
Procedure: Kuramochi cells labeled with mApple-H2B and Kuramochi RB1−/− cells labeled with NucLight green (Sartorius, 4475) were co-plated on 384-well assay-ready plates along with test compounds at varying concentrations. Plates were placed in the IncuCyte® Sartorius and scanned at 0 and 72 hours. IncuCyte® software was used to count the number of fluorescent nuclei in each well. The fold change in cell count from 0 to 72 hours in wells treated with increasing compounds concentrations (10 pts, ½ log dilution, 20 uM top concentration) was normalized to DMSO control wells. The normalized cell counts were fit with dose response curves and a GI50 was calculated.

CDK2/Cyclin E1(14-475) [2] = target: T1, CDK2/Cyclin E1(14-475) (Homo sapiens, UniProt P24941); assay: Caliper LabChip EZ Reader mobility shift assay, inhibition of CDK2/Cyclin E1 activity; assay type: biochemical; conditions: class symbols A-D
Method in brief: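 Mobility-shift readout of fluorescent peptide (1.5 μM final) phosphorylation by 2.5 nM CDK2/Cyclin E1(14-475) at 100 μM ATP, pH 7.5. Compounds pre-incubated 30 min with enzyme before substrate addition; 100-min reaction halted by EDTA, normalized % activity fitted to four-parameter curve for IC50.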

Kuramochi cells [3] = assay: BrdU cell proliferation assay (colorimetric ELISA), Kuramochi cells; assay type: cell-based; conditions: class symbols A-D
Method in brief: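 Proliferation was read as BrdU incorporation: a 1 h pulse, then fixation and peroxidase-antibody ELISA at 450 nm, with values normalized to DMSO after empty-well subtraction. Treatment lasted 4 days on Kuramochi cells seeded at 2,000/well, using four 3-fold compound dilutions from 10 mM stocks. RB^KO Kuramochi cells were run in parallel for specificity.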

CDK2/Cyclin E1(14-475) [4] = target: T1, CDK2/Cyclin E1(14-475); assay: HotSpot kinase inhibition assay (radiometric, Reaction Biology Corporation); assay type: biochemical; conditions: 10 μM ATP, class symbols A-D
Procedure: Inhibition of a select panel of CDK2/CCNE1 activities in the presence of compounds of the present disclosure was evaluated using the HotSpot™ assay (proprietary to Reaction Biology Corporation). In the assay, activated CDK2/Cyclin E1 catalyzes the transfer of radioactive phosphate to amino acid residues of peptide or protein substrates, which are detected radiometrically. […] Reactions contained 20 mM HEPES pH 7.5, 10 mM MgCl2, 1 mM EGTA, 2 mM DTT, 0.02% Brij35, 0.02 mg/mL BSA, 0.1 mM Na3VO4, 1% DMSO, 1.5 nM CDK2/Cyclin E1(14-475), 10 μM ATP, and 20 μM Histone H1 protein isolated from calf thymus (Sigma).
CDK2/Cyclin E1 […] and Histone H1 were mixed in reaction buffer. To this mixture, was added dose titrations of inhibitor compounds in 100% DMSO by acoustic transfer. The compound mixtures were incubated for 20 minutes, then the kinase reactions were initiated by the addition of a mixture of ATP and ^33P ATP for final concentrations of 10 μM total ATP, 20 μM Histone H1, and 1.5 nM CDK2/Cyclin E1 (14-475). The reactions were carried out for 120 minutes, then spotted on a P81 ion exchange filter paper, and extensively washed with 0.75% phosphoric acid. The resulting radioactive counts were normalized to yield % activity, plotted against compound concentration, and fit to a four-parameter equation to determine the IC50 for each compound.

Compound	IC50 (CDK2/Cyclin E1(14-475) [2])	IC50 (CDK2/Cyclin E1(14-475) [4])	GI50 (Kuramochi cells [1]; 72 h)	IC50 (Kuramochi cells [3])	GI50 (Kuramochi cells [1]; 72 hours)
CNC(=O)C(NC(=O)C1CN(C(=O)Cc2c[nH]c3cc(Cl)ccc23)CC2CN(C(=O)c3ccc(OC(C)C)c(OC)c3)CC21)[C@H](C)OCc1ccccc1 (single isomer, unassigned) [I-145]	≤ 0.5 µM	–	1 to 10 µM	0.5 to 5 µM	–
CNC(=O)[C@@H](NC(=O)C1CN(C(=O)Cc2c[nH]c3cc(Cl)ccc23)CC2CN(C(=O)c3ccc(OC(C)C)c(OC)c3)CC21)[C@H](C)OCc1ccccc1 (single isomer, unassigned) [I-146]	≤ 0.5 µM	–	10 to 20 µM	> 10 µM	–
CNC(=O)[C@@H](NC(=O)C1CN(C(=O)Cc2c[nH]c3cc(Cl)ccc23)CC2CN(C(=O)c3ccc(OC(C)C)c(OC)c3)CC21)[C@H](C)OCc1ccccc1 (single isomer, unassigned) [I-148]	0.5 to 5 µM	–	–	> 10 µM	> 20 µM
COc1cc(C(=O)N2CC3CN(C(=O)Cc4c[nH]c5cc(Cl)ccc45)CC(C(=O)NCc4ccc(C)nn4)C3C2)ccc1OC(C)C (single isomer, unassigned) [I-261]	> 10 µM	–	> 20 µM	–	–
COc1cc(C(=O)N2CC3CN(C(=O)Cc4c[nH]c5cc(Cl)ccc45)CC(C(=O)NCc4ccc(C)nn4)C3C2)ccc1OC(C)C (single isomer, unassigned) [I-262]	> 10 µM	–	–	–	> 20 µM
CNC(=O)[C@H](CCCc1ccccc1)NC(=O)C1CN(C(=O)Cc2c[nH]c3cc(Cl)ccc23)CC2CN(C(=O)c3ccc4[nH]c(C)cc4c3)CC21 (stereo partly shown) [I-2]	–	10 to 100 µM	–	> 10 µM	–
CNC(=O)[C@H](CCCc1ccccc1)NC(=O)C1CN(C(=O)Cc2c[nH]c3cc(Cl)ccc23)CC2CN(C(=O)c3cc(-c4ccccc4)on3)CC21 (stereo partly shown) [I-13]	> 10 µM	> 100 µM	–	5 to 10 µM	–
CNC(=O)[C@H](CCCc1ccccc1)NC(=O)C1CN(C(=O)Cc2c[nH]c3cc(Cl)ccc23)CC2CN(C(=O)c3cc(-c4ccccc4)[nH]n3)CC21 (stereo partly shown) [I-19]	> 10 µM	≤ 1 µM	–	0.5 to 5 µM	–
CNC(=O)[C@H](CCCc1ccccc1)NC(=O)C1CN(C(=O)Cc2c[nH]c3cc(Cl)ccc23)CC2CN(C(=O)c3ccc(O)c(OC)c3)CC21 (stereo partly shown) [I-32]	–	> 100 µM	–	> 10 µM	–
CNC(=O)[C@H](CCCc1ccccc1)NC(=O)C1CN(C(=O)Cc2c[nH]c3cc(Cl)ccc23)CC2CN(C(=O)c3cccc(Oc4ccccc4)c3)CC21 (stereo partly shown) [I-35]	–	> 100 µM	–	> 10 µM	–
CNC(=O)[C@H](CCCc1ccccc1)NC(=O)C1CN(C(=O)Cc2c[nH]c3cc(Cl)ccc23)CC2CN(C(=O)c3cncc(OC)n3)CC21 (stereo partly shown) [I-42]	–	> 100 µM	–	> 10 µM	–
CNC(=O)[C@H](CCCc1ccccc1)NC(=O)C1CN(C(=O)Cc2c[nH]c3cc(Cl)ccc23)CC2CN(C(=O)c3cnc4nccn4c3)CC21 (stereo partly shown) [I-64]	–	10 to 100 µM	–	> 10 µM	–
CCOc1cccc(C(=O)N2CC3CN(C(=O)Cc4c[nH]c5cc(Cl)ccc45)CC(C(=O)N[C@@H](CCCc4ccccc4)C(=O)NC)C3C2)c1 (stereo partly shown) [I-67]	–	10 to 100 µM	–	–	–
CNC(=O)[C@H](CCCc1ccccc1)NC(=O)C1CN(C(=O)Cc2c[nH]c3cc(Cl)ccc23)CC2CN(C(=O)c3ccc4c(c3)OCCO4)CC21 (stereo partly shown) [I-77]	–	> 100 µM	–	> 10 µM	–
CNC(=O)[C@H](CCCc1ccccc1)NC(=O)C1CN(C(=O)Cc2c[nH]c3cc(Cl)ccc23)CC2CN(C(=O)c3cc(C4CC4)on3)CC21 (stereo partly shown) [I-81]	–	10 to 100 µM	–	> 10 µM	–
CNC(=O)[C@H](Cc1ccccc1)NC(=O)C1CN(C(=O)Cc2c[nH]c3cc(Cl)ccc23)CC2CN(C(=O)c3ccc(OC(C)C)c(OC)c3)CC21 (stereo partly shown) [I-122]	–	10 to 100 µM	–	–	–
CNC(=O)[C@H](Cc1ccc(O)cc1)NC(=O)C1CN(C(=O)Cc2c[nH]c3cc(Cl)ccc23)CC2CN(C(=O)c3ccc(OC(C)C)c(OC)c3)CC21 (stereo partly shown) [I-123]	–	10 to 100 µM	–	–	–
CNC(=O)[C@H](C)NC(=O)C1CN(C(=O)Cc2c[nH]c3cc(Cl)ccc23)CC2CN(C(=O)c3ccc(OC(C)C)c(OC)c3)CC21 (stereo partly shown) [I-125]	–	10 to 100 µM	–	–	–
CNC(=O)[C@H](CCCc1ccccc1)NC(=O)C1CN(C(=O)Cc2c[nH]c3c(Cl)cccc23)CC2CN(C(=O)c3ccc(OC(C)C)c(OC)c3)CC21 (stereo partly shown) [I-222]	–	1 to 10 µM	–	–	–
CNC(=O)[C@H](CCCc1ccccc1)NC(=O)C1CN(C(=O)Cc2c[nH]c3cc(OC)ccc23)CC2CN(C(=O)c3ccc(OC(C)C)c(OC)c3)CC21 (stereo partly shown) [I-235]	–	1 to 10 µM	–	–	–

Further lines, with some results ahead:

IC50 (CDK2/Cyclin E1(14-475) [2])	IC50 (CDK2/Cyclin E1(14-475) [4])	Compound	GI50 (Kuramochi cells [1]; 72 h)	IC50 (Kuramochi cells [3])	GI50 (Kuramochi cells [1]; 72 hours)
> 10 µM	–	CNC(=O)[C@@H](NC(=O)C1CN(C(=O)Cc2c[nH]c3cc(Cl)ccc23)CC2CN(C(=O)c3ccc(OC(C)C)c(OC)c3)CC21)[C@H](C)OCc1ccccc1 (single isomer, unassigned) [I-147]	–	> 10 µM	> 20 µM
–	> 100 µM	CNC(=O)[C@H](CCCc1ccccc1)NC(=O)C1CN(C(=O)Cc2c[nH]c3cc(Cl)ccc23)CC2CN(C(=O)c3ccc4nccnc4c3)CC21 (stereo partly shown) [I-17]	–	> 10 µM	–
–	1 to 10 µM	CNC(=O)[C@H](CCCc1ccccc1)NC(=O)C1CN(C(=O)Cc2c[nH]c3cc(Cl)ccc23)CC2CN(C(=O)c3ccccc3)CC21 (stereo partly shown) [I-50]	–	> 10 µM	–
–	> 100 µM	CNC(=O)[C@H](CCCc1ccccc1)NC(=O)C1CN(C(=O)Cc2c[nH]c3cc(Cl)ccc23)CC2CN(C(=O)c3ccc4[nH]nnc4c3)CC21 (stereo partly shown) [I-62]	–	> 10 µM	–
≤ 0.5 µM	–	CNC(=O)[C@@H](NC(=O)C1CN(C(=O)Cc2c[nH]c3cc(Cl)ccc23)CC2CN(C(=O)c3ccc(OC(C)C)c(OC)c3)CC21)[C@H](C)OCc1ccccc1 (stereo partly shown) [I-106]	1 to 10 µM	0.5 to 5 µM	–
–	> 100 µM	CNC(=O)[C@@H](C)NC(=O)C1CN(C(=O)Cc2c[nH]c3cc(Cl)ccc23)CC2CN(C(=O)c3ccc(OC(C)C)c(OC)c3)CC21 (stereo partly shown) [I-124]	–	> 10 µM	–
–	> 100 µM	CNC(=O)[C@H](CCCc1ccccc1)NC(=O)C1CN(C(=O)Cc2c[nH]c3cccc(Cl)c23)CC2CN(C(=O)c3ccc(OC(C)C)c(OC)c3)CC21 (stereo partly shown) [I-221]	–	> 10 µM	–
> 10 µM	> 100 µM	CNC(=O)[C@@H](NC(=O)C1CN(C(=O)Cc2c[nH]c3cc(Cl)ccc23)CC2CN(C(=O)c3cc(-c4ccccc4)n[nH]3)CC21)[C@@H](C)OCC1CCCCC1 (stereo partly shown) [I-251]	–	5 to 10 µM	–
